Experimental data from ChEMBL document CHEMBL5042490, “Lead derivatization of ethyl 6-bromo-2-((dimethylamino)methyl)-5-hydroxy-1-phenyl-1H-indole-3-carboxylate and 5-bromo-2-(thiophene-2-carboxamido) benzoic acid as FabG inhibitors targeting ESKAPE pathogens” (Eur J Med Chem, 2022).
pIC50: −log10 of the molar value.

Tests used:
[1] = Inhibition of Pseudomonas aeruginosa FabG assessed as reduction in Acetoacetyl-coenzyme-A substrate in presence of NADPH preincubated for 5 mins followed by substrate addition and measured for 6 to 10 mins by spectrophotometric analysis
[2] = Inhibition of Salmonella typhimurium FabG assessed as reduction in Acetoacetyl-coenzyme-A substrate in presence of NADPH preincubated for 5 mins followed by substrate addition and measured for 6 to 10 mins by spectrophotometric analysis; parameters: species or system Salmonella enterica subsp. enterica serovar Typhimurium; settings: for pIC50: read-out: IC50
[3] = Inhibition of Escherichia coli FabG assessed as reduction in Acetoacetyl-coenzyme-A substrate in presence of NADPH preincubated for 5 mins followed by substrate addition and measured for 6 to 10 mins by spectrophotometric analysis; settings: for pIC50: read-out: IC50
[4] = Inhibition of Klebsiella pneumoniae FabG1 assessed as reduction in Acetoacetyl-coenzyme-A substrate in presence of NADPH preincubated for 5 mins followed by substrate addition and measured for 6 to 10 mins by spectrophotometric analysis
[5] = Inhibition of Klebsiella pneumoniae FabG2 assessed as reduction in Acetoacetyl-coenzyme-A substrate in presence of NADH preincubated for 5 mins followed by substrate addition and measured for 6 to 10 mins by spectrophotometric analysis
[6] = Inhibition of Mycobacterium tuberculosis FabG assessed as reduction in Acetoacetyl-coenzyme-A substrate in presence of NADPH preincubated for 5 mins followed by substrate addition and measured for 6 to 10 mins by spectrophotometric analysis; settings: for pIC50: read-out: IC50
[7] = Inhibition of Staphylococcus aureus FabG assessed as reduction in Acetoacetyl-coenzyme-A substrate in presence of NADPH preincubated for 5 mins followed by substrate addition and measured for 6 to 10 mins by spectrophotometric analysis
[8] = Inhibition of Acinetobacter baumannii FabG assessed as reduction in Acetoacetyl-coenzyme-A substrate in presence of NADPH preincubated for 5 mins followed by substrate addition and measured for 6 to 10 mins by spectrophotometric analysis; settings: for pIC50: read-out: IC50

Row | SMILES | IC50 [1] | IC50 [2] | IC50 [3] | IC50 [4] | IC50 [5] | pIC50 [6] | IC50 [7] | IC50 [8] | pIC50 [8] | pIC50 [2] | pIC50 [3] | IC50 [6]
1 | O=C(CCBr)Nc1ccc(Br)cc1C(=O)O | Not Active | Not Active | Not Active | Not Active | Not Active | 4.11 | Not Active | Not Active | – | – | – | –
2 | Cc1c(Br)cccc1C(=O)Nc1ccc(Br)cc1C(=O)O | Not Active | Not Active | Not Active | Not Active | Not Active | – | Not Active | – | 4.44 | – | – | –
3 | O=C(O)c1cc(Br)ccc1NC(=O)c1cccnc1Cl | Not Active | – | – | Not Active | Not Active | – | Not Active | Not Active | – | 4.29 | 4.80 | –
4 | CCOC(=O)c1c(CSc2nc3ccccc3o2)n(C)c2cc(Br)c(O)cc12 | Not Active | Not Active | – | Not Active | Not Active | – | Not Active | Not Active | – | – | 4.73 | –
5 | O=C(Nc1ccc(Br)cc1C(=O)O)c1cccc(I)c1 | Not Active | – | – | Not Active | Not Active | 4.83 | Not Active | – | 4.80 | 4.43 | 4.67 | –
6 | CCOC(=O)c1c(CSc2nc3ccccc3s2)n(C)c2cc(Br)c(O)cc12 | Not Active | Not Active | – | Not Active | Not Active | – | Not Active | Not Active | – | – | 4.50 | –
7 | CCOC(=O)c1c(CSc2nc3ccccc3s2)n(Cc2ccccc2)c2cc(Br)c(O)cc12 | Not Active | Not Active | – | Not Active | Not Active | – | Not Active | Not Active | – | – | 4.68 | Not Active
